{"source": "patent US20240424019A1", "about": "“SHP1 MODIFIED DENDRITIC CELLS AND EXTRACELLULAR VESICLES DERIVED THEREFROM AND ASSOCIATED METHODS” (BOARD OF REGENTS, THE UNIVERSITY OF TEXAS SYSTEM, priority 2021, published 2024)", "key": {"pY564-SHP1": {"test_system": "pY564-SHP1", "assay": "Reverse phase protein array (RPPA) of BMDCs", "assay_type": "cell-based, mouse", "conditions": "VitE 50 μg/ml, tumor conditioned media, 48 hours", "experimental": "FIG. 3A: Volcano plot of reverse phase protein array (RPPA) data of mouse BMDCs treated with VitE (50 μg/ml) compared to those treated with vehicle control with tumor conditioned media (TCM) for 48 hours (n=3 independent samples). […] The grey dashed line indicates P-value of 0.05. FIG. 3B: t-SNEs by CyTOF and quantification comparing the intensity of pY564-SHP1 in TADCs from the vehicle-or VitE-treated EMT6 tumors at day 15 post-implantation. FIG. 3C: Top, SHP1 knockdown in BMDCs was effective. Bottom, CFSE-dilution analysis of OT-1 T cells co-cultured with OVA protein-pulsed BMDCs (ratio 10:1) with knockdown of SHP1 by siPtpn6 versus siCtrl (n=3). Right, quantification of OT-1 T-cell numbers under the indicated condition. FIG. 3D: The binding of VitE to purified SHP1 is analyzed by microscale thermophoresis (MST) binding assay. […] FIG. 3E: Relative tyrosine phosphatase activity of SHP1 immunoprecipitated from LPS (100 ng/ml)-activated DC2.4 cells in the presence of indicated doses of VitE (mean of triplicates). FIG. 3F: SHP1 tyrosine phosphatase activity in LPS (100 ng/ml)-activated BMDCs (n=6) treated with vehicle-or VitE (50 μg/ml). Error bars, s.e.m. ns, no significant. *P<0.05, **P<0.01. ***P<0.001, ****P<0.0001.\nTo explore the molecular mechanism of VitE on DCs function, we performed a reverse-phase protein array (RPPA) analysis on DCs. […]"}, "human IFN-γ+CD8+ T cells": {"test_system": "human IFN-γ+CD8+ T cells", "assay": "Coculture of human MoDCs with autologous T cells", "assay_type": "cell-based", "conditions": "VitE-treated vs vehicle-treated autologous MoDCs", "experimental": "FIG. 2A: Percentage of human IFN-γ^+CD8^+ T cells in CD8^+ T cells in coculture with vehicle or VitE-treated autologous MoDCs (n=3). FIG. 2B: Representative flow cytometric analysis and quantification of antigen-specific OT-1 T cell proliferation stimulated with OVA-loaded mouse BMDCs that were treated with vehicle or VitE at day 3. FIG. 2C: Tumor growth curves of orthotopic EMT6 tumor-bearing mice treated with vehicle (Ctrl), Vitamin E (VitE), or VitE plus Cyt c (10 mg/kg. i.v, every other day starting on day 3) to deplete DCs (n=8/group). The statistical significance is defined by P-value: *P<0.05, **P<0.01, ***P<0.001. ****P<0.0001. Human leukocyte concentrate (buffy coat) was collected from healthy blood donor volunteers by MD Anderson Blood Donor Center. Written informed consent was obtained from all participating blood donors and the use of anonymized leftover specimens for scientific purposes was approved by the Ethics Committee of the MD Anderson Cancer Center. For the generation of monocyte-derived dendritic cells (MoDCs), peripheral blood of healthy individuals was applied to a Ficoll gradient (BD), and mononuclear cells were freshly isolated and cultured in the dish in a humidified incubator for 1 hour to let monocytes adhere. After removing the medium with non-adherent cells, the adherent monocytes were collected through vigorous pipetting. […]"}, "cancer patients": {"test_system": "cancer patients", "assay": "Retrospective analysis of electronic health records of cancer patients receiving ICT (anti-PD-1/PD-L1)", "assay_type": "in vivo, human", "description": "FIG. 1A: Percentages of deceased cancer patients taking dietary nutritional supplements during ICT treatment (Anti-PD-1/PDL1: Pembrolizumab/Atezolizumab) (n=7,667 including 1,888 breast cancer patients, 2,715 melanoma patients, and 3,064 prostate cancer patients). Each bar represents a group of patients who took one type of nutritional supplement along with ICT (Red dashed line indicated the median percentage of deceased cancer patients in this study). […] FIGS. 1C-1D: Tumor growth curves of orthotopic EMT6 TNBC tumor-bearing Balb/c mice (FIG. 1C, n=5) and orthotopic B16-GMCSF melanoma tumor-bearing C57BL/6 mice (FIG. 1D, left, n=5) treated with vehicle, 50 mg/kg of Vitamin E (VitE), […] anti-PDI (ICT), or Vitamin E+anti-PD1 (VitE+ICT) (n=5). Flow cytometry quantification of Granzyme B^+CD8^+ T cells in tumor tissues at 20 days post-implantation (FIG. 1D. right, n=5). FIG. 1E: Tumor growth curves of orthotopic B16-F10 melanoma tumor-bearing C57BL/6 mice with the indicated treatments (n=5). FIG. 1F: Tumor growth curves of orthotopic B16-FLT3L melanoma tumor-bearing C57BL/6 mice with the indicated treatments (n=5). […]\nWe retrospectively analyzed electronic health records for the clinical outcomes of cancer patients receiving ICT immunotherapies (anti-PD-1/PD-L1). […]"}, "HY19636 KPC tumor": {"test_system": "HY19636 KPC tumor", "assay": "Orthotopic HY19636 KPC PDAC tumor model", "assay_type": "in vivo, mouse", "protocol": "FIG. 6E: Measurement of maximal tumor diameter in HY1936 KPC tumor-bearing mice treated with gemcitabine (GEM, 25 mg/kg by i.p.) and ICT (anti-PDI/anti-CTLA4) along with vehicle or VitE (n=5). FIG. 6F: Kaplan-Meier survival curve of HY19636 KPC tumor-bearing mice treated with vehicle, GEM (gemcitabine, 25 mg/kg by i.p.), GEM+ICT (anti-PDI/anti-CTLA4) plus vehicle or VitE (n=6).\nSyngeneic orthotopic PDAC tumors were established by surgical implantation. Briefly, 2,000 HY19636 KPC cells in 50 μl PBS were injected into each pancreas of the C57BL/6J mouse.\nTreatments were given as single agents or in combinations with the indicated regimens for each group. VitE (D-α-Tocopherol type VI, Cat.T1539, Sigma-Aldrich) was formulated in the vehicle (10% ethanol in sterile water) and administered by oral gavage once a day at a dose of 50 mg/kg body weight (100 μl at 10 mg/ml per day), corresponding to 400 to 600 mg/day in a human weighing 60 kg, which is within the range of doses recommended for supplement and pharmacological use. VitE treatment was initiated on day 4 ending until the ending point.\nFor chemo combination treatment, HY19636 KPC tumor-bearing mice were treated with gemcitabine (GEM) at 25 mg/kg body weight by i.p. injection once a week from day 7 and 4T1 TNBC tumor-bearing mice were given with doxorubicin (Dox, 5 mg/kg body weight) by i.v. once a week from day 10. The chemotherapeutic doses and schedules used in this study are below or within the range of the concentrations used in the clinic after converting drug doses between species."}, "RAB34": {"test_system": "RAB34", "assay": "Immunoblot of Rab34 proteins in BMDCs", "assay_type": "cell-based, mouse", "conditions": "VitE vs vehicle, 48 hr"}, "[1]": {"conditions": "VitE added to GEM+ICT vs GEM+ICT+vehicle"}}, "data": [{"smiles": "Cc1c(C)c2c(c(C)c1O)CC[C@@](C)(CCC[C@H](C)CCC[C@H](C)CCCC(C)C)O2", "note": "[VitE, D-α-Tocopherol]", "values": [{"measurement": "phosphorylation of SHP1 at Y564 in DCs", "setting": "pY564-SHP1", "value": "decreased the phosphorylation at tyrosine 564 (Y564)"}, {"measurement": "IFNγ+CD8+ T cells in coculture", "setting": "human IFN-γ+CD8+ T cells", "value": "increased autologous IFNγ+CD8+ cytotoxic T cells"}, {"measurement": "survival rate of cancer patients", "setting": "cancer patients; VitE during anti-PD-1/PD-L1 treatment vs any of 14 other dietary or nutritional supplements", "value": "significantly improved survival rate"}, {"measurement": "Percentages of deceased cancer patients", "setting": "cancer patients; took VitE during anti-PD-1/PD-L1 treatment (n=83), patients who did not 21.2% (n=7,574), Fisher P 0.0027", "value": 8.4, "unit": "%"}, {"measurement": "survival time", "setting": "HY19636 KPC tumor; [1]", "value": "prolonged the survival time"}, {"measurement": "tumor growth", "setting": "HY19636 KPC tumor; [1]", "value": "effectively inhibited the HY19636KPC PDAC tumor growth"}, {"measurement": "ascites", "setting": "HY19636 KPC tumor; VitE added to GEM+ICT, day 25", "value": "reduced tumor-induced ascites"}, {"measurement": "RAB34 expression in BMDCs", "setting": "RAB34", "value": "increased total RAB34 expression"}]}]}
